Results as given in PubChem BioAssay AID256 (DTP/NCI, 2004).
“And” between values parts separate entries of the source, which are not always exact repeats. Identical values can stand only once. Inconclusive results and toxic doses are left out. Rule for the calls: active = survival T/C of 150% or more; inactive = T/C below 125% in these data.

System: CD2F1 mice, L1210 leukemia ip, survival T/C
Test: NCI In Vivo Anticancer Drug Screen. Data for tumor model L1210 Leukemia (intraperitoneal) in CD2F1 (CDF1) mice
Conditions: higher = longer survival
Outline: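 In this screen, transplantable tumors were grown in mice given either the compound or its vehicle. Results were expressed as the treated measurement relative to the control measurement.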

[1] = endpoint: mean survival time, dose: 12.5 mg/kg/injection, schedule: Q01DX005 (ip), vehicle: water
[2] = endpoint: mean survival time, dose: 25.0 mg/kg/injection, schedule: Q01DX005 (ip), vehicle: water
[3] = endpoint: mean survival time, dose: 50.0 mg/kg/injection, schedule: Q01DX005 (ip), vehicle: water
[4] = endpoint: mean survival time, dose: 100.0 mg/kg/injection, schedule: Q04DX003 (ip), vehicle: saline with Tween-80
[5] = endpoint: mean survival time, dose: 200.0 mg/kg/injection, schedule: Q04DX003 (ip), vehicle: saline with Tween-80
[6] = endpoint: mean survival time, dose: 400.0 mg/kg/injection, schedule: Q04DX003 (ip), vehicle: saline with Tween-80
[7] = endpoint: mean survival time, dose: 50.0 mg/kg/injection, schedule: Q04DX002 (ip), vehicle: saline with Tween-80
[8] = endpoint: mean survival time, dose: 100.0 mg/kg/injection, schedule: Q04DX002 (ip), vehicle: saline with Tween-80
[9] = endpoint: mean survival time, dose: 400.0 mg/kg/injection, schedule: Q04DX002 (ip), vehicle: saline with Tween-80
[10] = endpoint: mean survival time, dose: 200.0 mg/kg/injection, schedule: Q04DX002 (ip), vehicle: saline with Tween-80
[11] = endpoint: mean survival time, dose: 100.0 mg/kg/injection, schedule: Q01DX009 (ip), vehicle: saline with Tween-80
[12] = endpoint: mean survival time, dose: 200.0 mg/kg/injection, schedule: Q01DX009 (ip), vehicle: saline with Tween-80

Measured: T/C

CC(C)(C)OC(=O)C[Si](C)(C)C
inactive: endpoint: mean survival time, dose: 12.5 mg/kg/injection, schedule: Q01DX005 (ip), vehicle: Klucel (hydroxypropylcellulose) (HPC) 90 % of control | endpoint: mean survival time, dose: 25.0 mg/kg/injection, schedule: Q01DX005 (ip), vehicle: Klucel (hydroxypropylcellulose) (HPC) 91 % of control | endpoint: mean survival time, dose: 50.0 mg/kg/injection, schedule: Q01DX005 (ip), vehicle: Klucel (hydroxypropylcellulose) (HPC) 93 % of control | endpoint: mean survival time, dose: 100.0 mg/kg/injection, schedule: Q01DX005 (ip), vehicle: Klucel (hydroxypropylcellulose) (HPC) 90 % of control | endpoint: mean survival time, dose: 200.0 mg/kg/injection, schedule: Q01DX005 (ip), vehicle: Klucel (hydroxypropylcellulose) (HPC) 88 % of control | endpoint: mean survival time, dose: 400.0 mg/kg/injection, schedule: Q01DX005 (ip), vehicle: Klucel (hydroxypropylcellulose) (HPC) 90 % of control

CNC(=O)n1c(N)nc(-c2ccccc2)c1-c1ccccc1
inactive: endpoint: median survival time, dose: 6.25 mg/kg/injection, schedule: Q01DX009 (ip), vehicle: saline with Tween-80 101 % of control | endpoint: median survival time, dose: 12.5 mg/kg/injection, schedule: Q01DX009 (ip), vehicle: saline with Tween-80 103 % of control | endpoint: median survival time, dose: 25.0 mg/kg/injection, schedule: Q01DX009 (ip), vehicle: saline with Tween-80 114 % of control | endpoint: median survival time, dose: 50.0 mg/kg/injection, schedule: Q01DX009 (ip), vehicle: saline with Tween-80 119 % of control | endpoint: median survival time, dose: 100.0 mg/kg/injection, schedule: Q01DX009 (ip), vehicle: saline with Tween-80 98 % of control

CCSC(CC(O)C(O)C(O)CO)n1cnc2c(Cl)ncnc21 (stereo not drawn)
inactive: [1] 100 % of control | [2] 105 % of control | [3] 102 % of control | endpoint: mean survival time, dose: 100.0 mg/kg/injection, schedule: Q01DX005 (ip), vehicle: water 107 % of control | endpoint: mean survival time, dose: 200.0 mg/kg/injection, schedule: Q01DX005 (ip), vehicle: water 104 % of control

O=P(O)(O)Cc1ccccc1-c1ccccc1
inactive: endpoint: mean survival time, dose: 100.0 mg/kg/injection, schedule: Q01DX001 (ip), vehicle: saline 93 % of control | endpoint: mean survival time, dose: 200.0 mg/kg/injection, schedule: Q01DX001 (ip), vehicle: saline 94 % of control | endpoint: mean survival time, dose: 400.0 mg/kg/injection, schedule: Q01DX001 (ip), vehicle: saline 100 % of control

O=C1C=CC(=O)N1c1ccc(Br)cc1 (tested in a mixture with another compound)
inactive: endpoint: mean survival time, dose: 100.0 mg/kg/injection, schedule: Q01DX009 (ip), vehicle: acetone 98 % of control | endpoint: mean survival time, dose: 200.0 mg/kg/injection, schedule: Q01DX009 (ip), vehicle: acetone 95 % of control

CCCCCCCCCc1nc(N)nc(NCCCC)n1
inactive: endpoint: mean survival time, dose: 25.0 mg/kg/injection, schedule: Q01DX009 (ip), vehicle: Klucel (hydroxypropylcellulose) (HPC) 101 % of control | endpoint: mean survival time, dose: 50.0 mg/kg/injection, schedule: Q01DX009 (ip), vehicle: Klucel (hydroxypropylcellulose) (HPC) 112 % of control | endpoint: mean survival time, dose: 100.0 mg/kg/injection, schedule: Q01DX009 (ip), vehicle: Klucel (hydroxypropylcellulose) (HPC) 108 % of control

CCCCC(CCCC)(C(=O)NC)c1ccccc1
inactive: [4] 95 % of control | [5] 97 % of control | [6] 90 % of control

Cc1ccc(NC(=O)Nc2cccc(NC(=O)COc3ccc(Cl)cc3C(=O)O)c2)cc1S(=O)(=O)F
inactive: endpoint: mean survival time, dose: 100.0 mg/kg/injection, schedule: Q01DX001 (ip), vehicle: saline with Tween-80 88 % of control | endpoint: mean survival time, dose: 200.0 mg/kg/injection, schedule: Q01DX001 (ip), vehicle: saline with Tween-80 86 % of control | endpoint: mean survival time, dose: 400.0 mg/kg/injection, schedule: Q01DX001 (ip), vehicle: saline with Tween-80 89 % of control

Nc1ncnc2c1ncn2C1C=C(CO)C(O)C1O (stereo not drawn)
inactive: endpoint: mean survival time, dose: 0.25 mg/kg/injection, schedule: Q01DX009 (ip), vehicle: Klucel (hydroxypropylcellulose) (HPC) 122 % of control | endpoint: mean survival time, dose: 0.5 mg/kg/injection, schedule: Q01DX009 (ip), vehicle: Klucel (hydroxypropylcellulose) (HPC) 113 % of control and 123 % of control | endpoint: mean survival time, dose: 1.0 mg/kg/injection, schedule: Q01DX009 (ip), vehicle: Klucel (hydroxypropylcellulose) (HPC) 124 % of control | endpoint: mean survival time, dose: 4.0 mg/kg/injection, schedule: Q01DX009 (ip), vehicle: Klucel (hydroxypropylcellulose) (HPC) 122 % of control

OCCSc1c(Cl)c(Cl)c(Cl)c(Cl)c1Cl
inactive: endpoint: mean survival time, dose: 25.0 mg/kg/injection, schedule: Q04DX002 (ip), vehicle: saline with Tween-80 98 % of control | [7] 95 % of control | [8] 115 % of control | [9] 90 % of control

CCNc1ncc2ccccc2c1-c1ccc(NCCCl)cc1
inactive: endpoint: mean survival time, dose: 25.0 mg/kg/injection, schedule: Q04DX003 (ip), vehicle: other 98 % of control | endpoint: mean survival time, dose: 50.0 mg/kg/injection, schedule: Q04DX003 (ip), vehicle: other 95 % of control | endpoint: mean survival time, dose: 100.0 mg/kg/injection, schedule: Q04DX003 (ip), vehicle: other 87 % of control | endpoint: mean survival time, dose: 200.0 mg/kg/injection, schedule: Q04DX003 (ip), vehicle: other 105 % of control | endpoint: mean survival time, dose: 400.0 mg/kg/injection, schedule: Q04DX003 (ip), vehicle: other 90 % of control

N#CCCN=C1C=CC(=C(c2ccc(NCCC#N)cc2)c2ccc(Cl)cc2Cl)C=C1
inactive: [8] 117 % of control

C=CCNC(=S)NCCCCCCCCCCCCCCCCCC
inactive: endpoint: mean survival time, dose: 12.5 mg/kg/injection, schedule: Q01DX009 (ip), vehicle: saline with Tween-80 98 % of control | endpoint: mean survival time, dose: 25.0 mg/kg/injection, schedule: Q01DX009 (ip), vehicle: saline with Tween-80 98 % of control | endpoint: mean survival time, dose: 50.0 mg/kg/injection, schedule: Q01DX009 (ip), vehicle: saline with Tween-80 104 % of control

COc1cc(/C=C/C(=O)O)ccc1OC(C)=O
inactive: endpoint: mean survival time, dose: 100.0 mg/kg/injection, schedule: Q01DX009 (ip), vehicle: saline 98 % of control | endpoint: mean survival time, dose: 200.0 mg/kg/injection, schedule: Q01DX009 (ip), vehicle: saline 100 % of control | endpoint: mean survival time, dose: 400.0 mg/kg/injection, schedule: Q01DX009 (ip), vehicle: saline 93 % of control

CCCCCC(C)(C)N=C=S
inactive: [4] 100 % of control | [5] 96 % of control

O=C1c2ccccc2C(=O)N1c1ccccc1-c1ccccc1
inactive: [4] 100 % of control | [5] 92 % of control | [6] 100 % of control

COC(=O)C1N=C1c1ccccc1.COC(=O)C1N=C1c1ccccc1.[Cl][Pd][Cl] (stereo not drawn)
inactive: endpoint: mean survival time, dose: 3.13 mg/kg/injection, schedule: Q04DX003 (ip), vehicle: distilled water + Tween-80 95 % of control | endpoint: mean survival time, dose: 6.25 mg/kg/injection, schedule: Q04DX003 (ip), vehicle: distilled water + Tween-80 103 % of control | endpoint: mean survival time, dose: 12.5 mg/kg/injection, schedule: Q04DX003 (ip), vehicle: distilled water + Tween-80 91 % of control | endpoint: mean survival time, dose: 25.0 mg/kg/injection, schedule: Q04DX003 (ip), vehicle: distilled water + Tween-80 103 % of control | endpoint: mean survival time, dose: 50.0 mg/kg/injection, schedule: Q04DX003 (ip), vehicle: distilled water + Tween-80 101 % of control | endpoint: mean survival time, dose: 100.0 mg/kg/injection, schedule: Q04DX003 (ip), vehicle: distilled water + Tween-80 101 % of control | endpoint: mean survival time, dose: 200.0 mg/kg/injection, schedule: Q04DX003 (ip), vehicle: distilled water + Tween-80 103 % of control

O=P(OCC(F)(F)F)(OCC(F)(F)F)OCC(F)(F)F
inactive: [8] 98 % of control | [10] 102 % of control | [9] 105 % of control

O=C(OC1(c2ccccc2)C2C=CC1CC2)c1ccc([N+](=O)[O-])cc1 (stereo not drawn)
inactive: [7] 102 % of control | [8] 98 % of control | [10] 95 % of control

NC(=S)N/N=C1\CC2CC1C1C=CCC21 (stereo not drawn)
inactive: [8] 111 % of control | [10] 98 % of control

COc1ccc(COC(=O)Nc2ccc(Cl)cc2)cc1OC
inactive: [8] 96 % of control | [10] 100 % of control | [9] 112 % of control

Nc1ccc(NC(=O)Nc2ccccc2)cc1
inactive: endpoint: mean survival time, dose: 100.0 mg/kg/injection, schedule: Q01DX001 (ip), vehicle: Klucel (hydroxypropylcellulose) (HPC) 88 % of control | endpoint: mean survival time, dose: 200.0 mg/kg/injection, schedule: Q01DX001 (ip), vehicle: Klucel (hydroxypropylcellulose) (HPC) 96 % of control | endpoint: mean survival time, dose: 400.0 mg/kg/injection, schedule: Q01DX001 (ip), vehicle: Klucel (hydroxypropylcellulose) (HPC) 96 % of control

Cc1cc(C)nc(NC(=S)N/N=C/c2ccccn2)n1
inactive: [8] 98 % of control | [10] 98 % of control | [9] 106 % of control

C(=NC1CCCCC1)c1c[nH]c2ccccc12
inactive: [11] 87 % of control | [4] 91 % of control | [12] 89 % of control | [5] 91 % of control | [6] 98 % of control

CNc1ncnc2c1cnn2C1OC(CO)C(O)C1O (stereo not drawn)
inactive: [1] 93 % of control | [2] 102 % of control | [3] 104 % of control

O=C(Nc1ccc(F)cc1)c1cccc(Cl)c1
inactive: [11] 98 % of control | [4] 94 % of control | [12] 90 % of control | [5] 94 % of control | endpoint: mean survival time, dose: 400.0 mg/kg/injection, schedule: Q01DX009 (ip), vehicle: saline with Tween-80 96 % of control | [6] 95 % of control
